Like-named read-outs stand apart in the source and are kept apart here.

For data set [1], the system named is Mouse colon carcinoma cell line CT26.WT. The data set is described as follows: Cell survival (MTT) assay, CT26 colon carcinoma cells. The class given is cell-based. The procedure: Mouse colon carcinoma cell line CT26. WT was purchased from the American Type Culture Collection (ATCC CRL-2638). […] During the incubation period, growth media was changed once with fresh pre-warmed medium (pH 7.2). To harvest the cells, old growth media was aspirated and 5 mL 0.25% trypsin solution (Thermo Sci Hyclone, Waltham, Mass., USA) were added. The cells were incubated for 10 min and gently scraped to detach cells from the flask walls. Clumped cells were broken up gently and 1 mL of the trypsinized cell homogenate suspension was transferred into a new T75 cell culture flask containing pre-warmed media (20 mL) for further culturing. […] After 24 h treatment, old growth media containing the PS or compounds were aspirated out and replaced with fresh media. Plates were then positioned below a non-coherent LumaCare LC-122 650 nm light source for 1, 2, and 5 min at an energy fluence rate of 16 mW/cm^2 (measured using a Newport optical power meter Model 840). Unirradiated cells served as control samples. […] Samples were allowed to incubate for additional 2 h, after which dark blue crystals formed. DMSO was added to each well and plates were shaken at room temperature for 1 h to dissolve the purplish-blue formazan crystals. Absorbance values at 490 nm were measured on a microplate reader (BioRad 550). Cell survival was calculated based on the absorbance of the untreated cells alone (as control) and were directly proportional to the number of viable cells in culture. Results were reported as average of triplicate measurements.

Data set [2] concerns triple-negative breast cancer cell BT549. The class given is cell-based. On the set-up: % Cell Survival: concentration or dose not given beside the values. Particulars: for % Cell Survival: BT549, 24 h compound treatment followed by 2 min light irradiation (1.92 J cm^−2); for dark toxicity / dark toxicity ranking: absence of light. The method, then: (§1) Human mammary epithelial carcinoma cell lines purchased from the American Type Culture Collection ZR-75-1 (ATCC CRL-1500) and BT-549 (ATCC HTB-122) were cultured according to ATCC protocol. Briefly, ZR-75-1 cells were grown in RPMI 1640 medium (ATCC), while BT-549 were grown in RPMI 1640 containing 0.023 IU/mL insulin. Both were supplemented with 10% fetal bovine serum (FBS). Cells were grown to 80-90% confluence in 75-cm^2 culture flasks (Corning) for 4-5 days in a humidified incubator (Fisher Scientific Isotemp) with 5% CO2 at 37° C. During the incubation period, growth media was changed once with fresh pre-warmed media (pH 7.2). To harvest the cells, old growth media was aspirated out and 3 mL 0.25% trypsin solution (Thermo Sci Hyclone) were added. The cells were incubated for 5 min and the cell pellet after centrifugation was resuspended in 3 mL media, broken up gently, then 1 ml of suspended cells was transferred into a new T75 cell culture flask containing pre-warmed media (20 mL) for further culturing.
(§2) Cells were grown to confluence in a 96-well plate (5×10^4 cells/well) and treated for 24 h with compounds or photosensitizers of varying concentrations ranging from 5 nM to 50 μM) in growth media from a stock solution of 10 mM in DMSO (dimethyl sulfoxide, Fisher). After 24 h treatment, old growth media containing the PS or compounds were aspirated out and replaced with fresh media. Plates were then positioned below a non-coherent LumaCare LC-122 650 nm light source for 1, 2, and 5 min at an energy fluence rate of 16 mW/cm^2 (measured using a Newport optical power meter Model 840). Unirradiated cells served as control samples. The following day, cells were washed with pre-warmed PBS, and MTT (3-[4,5-dimethyl-thiazol-2-yl]-2.5-diphenyltetrazolium bromide, Sigma, 0.3 mg/mL) in PBS was added to each well. Samples were allowed to incubate for additional 2 h, after which dark blue crystals formed. DMSO was added to each well and plates were shaken at room temperature for 1 h to dissolve the purplish-blue formazan crystals. Absorbance values at 490 nm were measured on a microplate reader (BioRad 550). Cell survival was calculated based on the absorbance of the untreated cells alone (as control) and were directly proportional to the number of viable cells in culture. Results were reported as average of triplicate measurements.

The test system of data set [3] is triple-positive breast cancer cell ZR-75-1. It counts as cell-based. On the set-up: % Cell Survival: concentration or dose not given beside the values. The following applies: for % Cell Survival: ZR-75-1, 24 h compound treatment followed by 2 min light irradiation (1.92 J cm^−2); for dark toxicity ranking / dark toxicity: unirradiated TPBC cells. The method, then:
as §1, §2

Data set [4] shares this test system. The data set is described as follows: Fluorescence microscopy (Hoechst 33258), ZR-75-1 cells. The class given is cell-based, Human. The following applies: 24 h compound treatment followed by 2 min light irradiation (1.92 J cm^−2). The method, then:
Fluorescence microscopy was used to visualize and examine the cell morphological features before and after photosensitization. Specific cellular characteristics can identify the mechanism of cell death which can be exploited to understand therapeutic outcome. […] After aspirating the old growth media, 1 mL of the compound or photosensitizer (with varying concentrations) in fresh pre-warmed media at 37° C. was added to each well. […] Images were recorded using fluorescence microscopy (DAPI for Hoechst 350-390 nm excitation and 460-490 nm emission filters) using an upright fluorescence microscope with Retiga imaging 2000R (Nikon Optiphot-2, 20× and 40×) and an image processing Nikon NIS-Elements V4.0 Qimaging software.

For “13^1-Hexamethylenediaminyl-Biotinylchlorin e6 dimethyl ester indium (III) chloride [Example 5]”, the “decrease in cell proliferation of colon cancer cells” value in data set [1] (irradiation for 2 min, compared to MePheo, Example 1 or Example 3) is 30%. The “% Cell Survival” value is 56% in data set [2] and 12.9% in data set [3]. In addition, the dark toxicity result in data set [2] (TNBC cells, 24-hr treatment) is on record as “exhibited dark toxicity”. For the same compound, the dark toxicity ranking result in data set [2] (TNBC cells) is “Example 3 (most phototoxic in the dark)>Example 1>Example 6>Example 5”; in data set [3], “Example 3>Example 5>MePheo>Example 6”. The “Morphological Features” value in data set [4] is recorded as “Cell debris apparent”.
Turning to “13^1-Hexamethylenediaminyl-bexarotenylchlorin e6 dimethyl ester [Example 2]”, the “% Cell Survival” value in data set [2] is 7.7%; in data set [3], 4.6%.
Turning to “13^1-Hexamethylenediaminyl-bexarotenylchlorin e6 dimethyl ester indium (III) chloride [Example 6]”, the “% Cell Survival” value stood at 33% in data set [2] and 80% in data set [3]. Further, the dark toxicity result in data set [2] (TNBC cells, 24-hr treatment) is on record as “exhibited dark toxicity”. For the same compound, the results for the dark toxicity ranking result in data set [2] (TNBC cells) and in data set [3] were “Example 3 (most phototoxic in the dark)>Example 1>Example 6>Example 5” and “Example 3>Example 5>MePheo>Example 6”, respectively. For the same compound, the “Morphological Features” value in data set [4] is recorded as “Clustered cells, intact nuclei”.
In the case of `C=C(c1ccc(C(=O)O)cc1)c1cc2c(cc1C)C(C)(C)CCC2(C)C` [Bexarotene, reference compound], the figures for the “% Cell Survival” value in data set [2] and in data set [3] were 111% and 110%, respectively.
With `O=C(O)CCCC[C@@H]1SC[C@@H]2NC(=O)N[C@@H]21` [Biotine, biotin, reference compound], the “toxicity to colon cancer cells (cell viability assay)” value in data set [1] (in the dark and in the presence of light, concentration up to 50 μM) is on record as “not toxic”. The “% Cell Survival” value in data set [2] is listed as 116%; in data set [3] it was 99%.
Consider `C=Cc1c(C)c2cc3nc(c(CC(=O)OC)c4[nH]c(cc5nc(cc1[nH]2)C(C)=C5CC)c(C)c4C(=O)NCCCCCCNC(=O)CCCC[C@@H]1SC[C@@H]2NC(=O)N[C@@H]21)[C@@H](CCC(=O)OC)[C@@H]3C` [Example 1, 13^1-Hexamethylenediaminyl-biotinylchlorin e6 dimethyl ester], for which the “increase of cell inhibition upon irradiation compared to methyl pheophorbide (MePheo)” value in data set [1] (colon cancer cells, upon irradiation) is reported as “approximately 19%”. The results for the “% Cell Survival” value in data set [2] and in data set [3] were 8.1% and 4.2%, respectively. In addition, the “phototoxicity at nanomolar concentrations” value in data set [2] (TNBC cells, 100 nM to 200 nM, light activation) is given as “showed a light-activation dose response”. In data set [2] (TNBC cells, 100 nM, 5 min light dose (4.8 J cm^−2)), this compound displayed a cell inhibition of 60%. Besides, the “reduction in cell proliferation” value in data set [2] (TNBC cells, 200 nM, lowest light dose used) was around 50%. The “cell survival in the absence of light” value in data set [2] (TNBC cells, 5 μM, 24-hr treatment, no light) is listed as 86%. The dark toxicity result in data set [2] (TNBC cells, 24-hr treatment) is on record as “exhibited in vitro dark cytotoxicity at 5 μM concentration”; in data set [3] it was “no toxicity”; in data set [3] (listed as Example l), “no dark toxicity”. Also, the dark toxicity ranking entry in data set [2] (TNBC cells) is given as “Example 3 (most phototoxic in the dark)>Example 1>Example 6>Example 5”.
On to `C=Cc1c(C)c2cc3nc(c4c5[nH]c(cc6nc(cc1[nH]2)C(C)=C6CC)c(C)c5C(=O)[C@@H]4C(=O)OC)[C@@H](CCC(=O)OC)[C@@H]3C` [Methyl pheophorbide a, reference compound], for which the “% Cell Survival” value in data set [2] came out at 21%. For the same compound, in data set [2] (TNBC cells, 24-hr treatment), the dark toxicity entry is on record as “no significant dark response”. For the same compound, in data set [3], the “% Cell Survival” value came out at 3.4% and the dark toxicity ranking result is on record as “Example 3>Example 5>MePheo>Example 6”.
Regarding “Zn(II)-13^1-Hexamethylenediaminyl-Biotinylchlorin e6 dimethyl ester [Example 3]”, the “% Cell Survival” value in data set [2] came to 16%; in data set [3] it was 15.4%. Further, the dark toxicity result in data set [2] (TNBC cells, 24-hr treatment) is on record as “exhibited dark toxicity”; in data set [3], “most phototoxic in the dark”. The dark toxicity ranking entry in data set [2] (TNBC cells) was “Example 3 (most phototoxic in the dark)>Example 1>Example 6>Example 5”; in data set [3], “Example 3>Example 5>MePheo>Example 6”.
Take “Zn(II)-13^1-Hexamethylenediaminyl-bexarotenylchlorin e6 dimethyl ester [Example 4]”: the “% Cell Survival” value in data set [2] was found to be 108%; in data set [3], 105%. In addition, the dark toxicity result in data set [2] (TNBC cells, 24-hr treatment) was “no significant dark response”; in data set [3], “no toxicity”. For the same compound, the “Morphological Features” value in data set [4] was “Clustered cells, intact nuclei”.
